According to patent US20070082908A1, “Bicycle pyrazole derivative” (DAINIPPON SUMITOMO PHARMA CO., LTD., priority 2003, published 2007):
pIC50: −log10 of the molar value. Where a name gives a salt, the structure may show the parent alone.

biological target: T1, human DPP IV (Homo sapiens, UniProt P27487); test: In vitro DPP-IV inhibitory effect measurement test (human serum, fluorogenic substrate Gly-Pro-MCA); format: biochemical; details: human serum diluted 10-fold as enzyme source; substrate Glycyl-L-Proline 4-Methyl-Coumaryl-7-Amide 100 μM; room temperature; read-out: Inhibitory activity against human DPP IV IC50
T1 construct: Human serum containing DPP-IV enzyme was used in an experiment after being diluted with assay buffer; from tissue; host or cells: human serum (diluted 10-fold)
Description: In Vitro DPP-IV Inhibitory Effect Measurement Test
Human serum containing DPP-IV enzyme was used in an experiment after being diluted with assay buffer (25 mM Tris-HCl, 140 mM NaCl, 10 mM KCl, pH 7.9) (finally, diluted 10-fold). Each of solutions of each test compound having various concentrations was added to the diluted serum and the resulting mixture was incubated at room temperature. Then, a substrate (Glycyl-L-Proline 4-Methyl-Coumaryl-7-Amide, Peptide Laboratories Co., Ltd.) was added thereto to a final concentration of 100 μM and the reaction was carried out at room temperature. Acetic acid was added to the reaction mixture to a final concentration of 12.5% to terminate the reaction, and the intensity of fluorescence at an excitation wavelength of 360 nm and a measuring wavelength of 460 nm was measured by the use of a fluorescent plate reader. A compound concentration for 50% inhibition was calculated as an IC50 value from enzyme inhibitory activity values obtained by adding each test compound to a plurality of concentrations.

T1 sequence (P27487 39-766 limits assumed): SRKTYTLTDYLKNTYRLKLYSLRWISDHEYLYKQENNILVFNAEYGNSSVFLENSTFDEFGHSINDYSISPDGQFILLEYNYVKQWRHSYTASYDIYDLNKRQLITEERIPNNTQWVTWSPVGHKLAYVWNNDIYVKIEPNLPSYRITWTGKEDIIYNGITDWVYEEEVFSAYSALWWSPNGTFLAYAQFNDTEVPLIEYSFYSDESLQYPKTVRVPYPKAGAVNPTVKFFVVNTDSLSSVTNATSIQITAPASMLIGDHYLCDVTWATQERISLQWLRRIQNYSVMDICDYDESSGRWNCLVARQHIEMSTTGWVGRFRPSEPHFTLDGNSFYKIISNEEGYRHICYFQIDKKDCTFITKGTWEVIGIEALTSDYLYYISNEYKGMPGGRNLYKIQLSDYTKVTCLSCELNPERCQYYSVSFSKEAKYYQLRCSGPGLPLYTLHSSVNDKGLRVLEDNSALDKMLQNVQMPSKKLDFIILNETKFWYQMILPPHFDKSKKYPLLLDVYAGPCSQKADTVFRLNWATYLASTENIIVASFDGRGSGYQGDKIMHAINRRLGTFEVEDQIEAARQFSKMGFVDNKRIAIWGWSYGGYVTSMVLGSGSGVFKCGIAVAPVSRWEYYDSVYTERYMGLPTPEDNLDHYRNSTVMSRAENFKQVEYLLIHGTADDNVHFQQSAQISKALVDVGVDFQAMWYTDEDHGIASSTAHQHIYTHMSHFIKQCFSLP

Row | pIC50 | Compound
1 | 9.15 | N[C@@H]1CCCN(c2nn3cc(C(=O)O)[nH]c(=O)c3c2Cc2cc(F)ccc2Cl)C1 [Example 7, 2-[(3R)-3-Aminopiperidin-1-yl]-3-(2-chloro-5-fluorobenzyl)-4-oxo-4,5-dihydropyrazolo[1,5-a]pyrazine-6-carboxylic acid methanesulfonate]
2 | 7.52 | N[C@@H]1CCCN(c2nn3cc[nH]c(=O)c3c2Cc2ccccc2Cl)C1 [Example 3, 2-[(3R)-3-Aminopiperidin-1-yl]-3-(2-chlorobenzyl)pyrazolo[1,5-a]pyrazin-4(5H)-one hydrochloride]
3 | 7.89 | Cn1c(C(N)=O)cn2nc(N3CCC[C@@H](N)C3)c(Cc3ccccc3Cl)c2c1=O [Example 21]
4 | 7.62 | N#Cc1ccccc1Cn1ccn2nc(N3CCC[C@@H](N)C3)c(Cc3ccccc3Cl)c2c1=O [Example 12]
5 | 8.15 | N[C@@H]1CCCN(c2nn3ccn(CC(=O)c4ccccc4)c(=O)c3c2Cc2ccccc2Cl)C1 [Example 8, 2-[(3R)-3-Aminopiperidin-1-yl]-3-(2-chlorobenzyl)-5-(2-oxo-2-phenylethyl)pyrazolo[1,5-a]pyrazin-4(5H)-one hydrochloride]
6 | 7.55 | CCc1cn2nc(N3CCC[C@@H](N)C3)c(Cc3ccccc3Cl)c2c(=O)n1CC(=O)c1ccccc1 [Example 26]
7 | 8.30 | Cn1c(C#N)cn2nc(N3CCC[C@@H](N)C3)c(Cc3ccccc3Cl)c2c1=O [Example 20]
8 | 8.80 | N[C@@H]1CCCN(c2nn3cc(C(=O)O)[nH]c(=O)c3c2Cc2ccccc2Cl)C1 [Example 17]
9 | 7.82 | N[C@@H]1CCCN(c2nn3cn[nH]c(=O)c3c2Cc2ccccc2Cl)C1 [Example 19]
10 | 7.21 | N[C@@H]1CCCN(c2nn3ccn(CCc4ccccc4)c(=O)c3c2Cc2ccccc2Cl)C1 [Example 14]
11 | 8.68 | CCOC(=O)c1cn2nc(N3CCC[C@@H](N)C3)c(Cc3ccccc3Cl)c2c(=O)[nH]1 [Example 41, Ethyl 2-[(3R)-3-aminopiperidin-1-yl]-3-(2-chlorobenzyl)-4-oxo-4,5-dihydropyrazolo[1,5-a]pyrazine-6-carboxylate hydrochloride]
12 | 7.15 | COc1ccccc1C(=O)Cn1ccn2nc(N3CCC[C@@H](N)C3)c(Cc3ccccc3Cl)c2c1=O [Example 9]
13 | 8.55 | N[C@@H]1CCCN(c2nn3cnn(CC(=O)c4ccccc4)c(=O)c3c2Cc2ccccc2Cl)C1 [Example 34, 2-[(3R)-3-Aminopiperidin-1-yl]-3-(2-chlorobenzyl)-5-(2-oxo-2-phenylethyl)pyrazolo[1,5-d][1,2,4]triazin-4(5H)-one hydrochloride]
14 | 7.70 | COC(=O)c1[nH]c(=O)c2c(Cc3ccccc3Cl)c(N3CCC[C@@H](N)C3)nn2c1C [Example 1, Methyl 2-[(3R)-3-aminopiperidin-1-yl]-3-(2-chlorobenzyl)-7-methyl-4-oxo-4,5-dihydropyrazolo[1,5-a]pyrazine-6-carboxylate hydrochloride]
15 | 8.60 | COC(=O)c1cn2nc(N3CCC[C@@H](N)C3)c(Cc3ccccc3Cl)c2c(=O)[nH]1 [Example 16]
16 | 8.55 | N[C@@H]1CCCN(c2nn3ccn(Cc4nccc5ccccc45)c(=O)c3c2Cc2ccccc2Cl)C1 [Example 10]
17 | 8.02 | COC(=O)Cc1c(C(=O)OC)[nH]c(=O)c2c(Cc3ccccc3Cl)c(N3CCC[C@@H](N)C3)nn12 [Example 38, Methyl 2-[(3R)-3-aminopiperidin-1-yl]-3-(2-chlorobenzyl)-7-(2-methoxy-2-oxoethyl)-4-oxo-4,5-dihydropyrazolo[1,5-a]pyrazine-6-carboxylate hydrochloride]
18 | 7.35 | Cc1c(C)n2nc(N3CCC[C@@H](N)C3)c(Cc3ccccc3Cl)c2c(=O)n1CC(=O)c1ccccc1 [Example 18]
19 | 8.64 | N[C@@H]1CCCN(c2nn3cnn(Cc4nccc5ccccc45)c(=O)c3c2Cc2ccccc2Cl)C1 [Example 35, 2-[(3R)-3-Aminopiperidin-1-yl]-3-(2-chlorobenzyl)-5-(isoquinolin-1-ylmethyl)pyrazolo[1,5-d][1,2,4]triazin-4(5H)-one hydrochloride]
20 | 7.60 | CC(C)Oc1cccc(C(=O)Cn2ccn3nc(N4CCC[C@@H](N)C4)c(Cc4ccccc4Cl)c3c2=O)c1 [Example 11]
21 | 7.43 | Cc1cn2nc(N3CCC[C@@H](N)C3)c(Cc3ccccc3Cl)c2c(=O)n1C [Example 4, 2-[(3R)-3-Aminopiperidin-1-yl]-3-(2-chlorobenzyl)-5,6-dimethylpyrazolo[1,5-a]pyrazin-4(5H)-one hydrochloride]
22 | 7.09 | N[C@@H]1CCCN(c2nn3cc(-c4ccccc4)[nH]c(=O)c3c2Cc2ccccc2Cl)C1 [Example 5, 2-[(3R)-3-Aminopiperidin-1-yl]-3-(2-chlorobenzyl)-6-phenylpyrazolo[1,5-a]pyrazin-4(5H)-one hydrochloride]
23 | 7.92 | Cn1ncn2nc(N3CCC[C@@H](N)C3)c(Cc3ccccc3Cl)c2c1=O [Example 33, 2-[(3R)-3-Aminopiperidin-1-yl]-3-(2-chlorobenzyl)-5-methylpyrazolo[1,5-d][1,2,4]triazin-4(5H)-one hydrochloride]
24 | 9.05 | CCOC(=O)c1cn2nc(N3CCC[C@@H](N)C3)c(Cc3cc(F)ccc3Cl)c2c(=O)[nH]1 [Example 32, Ethyl 2-[(3R)-3-aminopiperidin-1-yl]-3-(2-chloro-5-fluorobenzyl)-4-oxo-4,5-dihydropyrazolo[1,5-a]pyrazine-6-carboxylate methanesulfonate]
25 | 8.21 | COc1cccc(C(=O)Cn2ccn3nc(N4CCC[C@@H](N)C4)c(Cc4ccccc4Cl)c3c2=O)c1 [Example 13]
